Reference: ChEMBL document CHEMBL5291721, “A preclinical secondary pharmacology resource illuminates target-adverse drug reaction associations of marketed drugs” (Nat Commun, 2023)
Values joined by “and” are separate entries in the source; they are usually repeats but may differ in a detail not shown here. Equal values may be shown once.

Legend:
[1] = target: T1, Equilibrative nucleoside transporter 1 (Homo sapiens, UniProt Q99808)
T1 sequence (Q99808 whole entry): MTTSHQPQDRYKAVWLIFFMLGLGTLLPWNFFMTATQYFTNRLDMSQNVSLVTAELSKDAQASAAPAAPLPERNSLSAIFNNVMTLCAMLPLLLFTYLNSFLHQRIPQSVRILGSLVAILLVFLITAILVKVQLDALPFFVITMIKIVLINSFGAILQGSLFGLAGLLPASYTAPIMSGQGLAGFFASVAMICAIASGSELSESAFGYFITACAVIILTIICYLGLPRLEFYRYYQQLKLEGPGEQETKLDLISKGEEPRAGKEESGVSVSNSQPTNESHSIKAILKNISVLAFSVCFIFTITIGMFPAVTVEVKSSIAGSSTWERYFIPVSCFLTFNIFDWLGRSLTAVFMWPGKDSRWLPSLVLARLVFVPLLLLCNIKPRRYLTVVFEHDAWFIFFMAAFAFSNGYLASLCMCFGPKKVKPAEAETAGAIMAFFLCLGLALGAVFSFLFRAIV

[2] = target: T2, Neuropeptide Y receptor type 1 (Homo sapiens, UniProt P25929)
T2 sequence (P25929 whole entry): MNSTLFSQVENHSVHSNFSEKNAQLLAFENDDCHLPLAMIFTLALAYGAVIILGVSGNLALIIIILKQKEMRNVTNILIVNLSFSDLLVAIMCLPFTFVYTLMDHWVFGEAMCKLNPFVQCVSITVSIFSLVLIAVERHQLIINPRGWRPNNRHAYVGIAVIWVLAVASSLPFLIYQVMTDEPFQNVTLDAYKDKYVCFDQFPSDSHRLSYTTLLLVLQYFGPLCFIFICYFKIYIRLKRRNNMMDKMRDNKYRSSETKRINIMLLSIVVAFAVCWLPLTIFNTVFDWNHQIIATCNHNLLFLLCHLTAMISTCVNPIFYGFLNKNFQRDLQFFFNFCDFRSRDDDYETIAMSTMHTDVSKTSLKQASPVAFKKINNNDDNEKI

Thromboxane A2 receptor = target: T3, Thromboxane A2 receptor (Homo sapiens, UniProt P21731)
T3 sequence (P21731 whole entry): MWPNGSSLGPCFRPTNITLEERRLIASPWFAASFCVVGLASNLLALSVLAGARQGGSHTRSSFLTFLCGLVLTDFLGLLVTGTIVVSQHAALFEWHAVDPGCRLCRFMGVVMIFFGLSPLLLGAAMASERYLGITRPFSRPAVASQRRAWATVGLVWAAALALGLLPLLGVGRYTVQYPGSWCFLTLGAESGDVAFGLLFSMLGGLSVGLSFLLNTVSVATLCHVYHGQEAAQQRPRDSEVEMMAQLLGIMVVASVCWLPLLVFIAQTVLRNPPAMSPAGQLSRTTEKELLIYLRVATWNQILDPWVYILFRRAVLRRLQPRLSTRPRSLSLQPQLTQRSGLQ

B2 bradykinin receptor = target: T4, B2 bradykinin receptor (Homo sapiens, UniProt P30411)
T4 sequence (P30411 whole entry): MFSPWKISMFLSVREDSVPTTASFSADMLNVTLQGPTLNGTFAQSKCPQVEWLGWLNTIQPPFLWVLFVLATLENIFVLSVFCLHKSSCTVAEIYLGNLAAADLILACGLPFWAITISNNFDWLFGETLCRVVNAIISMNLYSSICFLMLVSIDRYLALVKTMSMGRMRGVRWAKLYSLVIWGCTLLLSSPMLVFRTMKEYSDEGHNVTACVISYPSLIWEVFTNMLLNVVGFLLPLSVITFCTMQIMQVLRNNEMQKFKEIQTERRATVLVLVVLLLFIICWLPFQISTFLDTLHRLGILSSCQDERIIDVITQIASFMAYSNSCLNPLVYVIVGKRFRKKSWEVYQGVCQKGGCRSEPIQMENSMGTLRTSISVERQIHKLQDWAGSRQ

[3] = target: Muscarinic acetylcholine receptor M3 (Homo sapiens, UniProt P20309)
[4] = target: T5, Alpha-2A adrenergic receptor (Homo sapiens, UniProt P08913); format: functional, cell-based
T5 sequence (P08913 whole entry): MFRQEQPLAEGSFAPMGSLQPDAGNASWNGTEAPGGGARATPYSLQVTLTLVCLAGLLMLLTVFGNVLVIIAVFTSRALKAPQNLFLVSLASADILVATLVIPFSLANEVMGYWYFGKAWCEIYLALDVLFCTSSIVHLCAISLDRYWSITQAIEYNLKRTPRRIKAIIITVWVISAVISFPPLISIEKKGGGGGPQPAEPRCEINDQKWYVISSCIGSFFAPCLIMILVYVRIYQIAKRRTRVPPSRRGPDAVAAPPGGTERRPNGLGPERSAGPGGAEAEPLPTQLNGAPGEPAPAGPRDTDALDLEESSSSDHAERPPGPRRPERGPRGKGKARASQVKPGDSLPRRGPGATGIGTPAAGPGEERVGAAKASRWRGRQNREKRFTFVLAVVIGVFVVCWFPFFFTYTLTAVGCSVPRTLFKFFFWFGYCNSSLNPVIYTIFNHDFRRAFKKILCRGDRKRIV

[5] = target: T6, Prostaglandin G/H synthase 1 (Rattus norvegicus, UniProt Q63921); format: functional
T6 sequence (Q63921 whole entry): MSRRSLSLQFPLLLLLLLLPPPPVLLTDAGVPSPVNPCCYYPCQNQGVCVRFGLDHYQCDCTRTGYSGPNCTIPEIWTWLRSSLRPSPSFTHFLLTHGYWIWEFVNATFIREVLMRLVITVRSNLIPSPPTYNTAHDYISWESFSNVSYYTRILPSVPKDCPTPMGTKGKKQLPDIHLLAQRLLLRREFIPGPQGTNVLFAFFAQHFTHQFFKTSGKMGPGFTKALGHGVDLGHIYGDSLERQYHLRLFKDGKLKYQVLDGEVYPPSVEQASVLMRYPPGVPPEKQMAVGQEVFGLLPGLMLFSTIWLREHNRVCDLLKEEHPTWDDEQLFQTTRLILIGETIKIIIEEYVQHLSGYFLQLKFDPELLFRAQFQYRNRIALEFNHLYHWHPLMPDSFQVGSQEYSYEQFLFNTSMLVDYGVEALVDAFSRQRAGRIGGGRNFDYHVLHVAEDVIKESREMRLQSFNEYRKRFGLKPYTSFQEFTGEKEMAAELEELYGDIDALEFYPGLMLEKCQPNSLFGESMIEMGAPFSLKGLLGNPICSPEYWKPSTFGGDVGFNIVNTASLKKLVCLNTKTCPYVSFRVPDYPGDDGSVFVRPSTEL

[6] = target: Sodium-dependent dopamine transporter (Homo sapiens, UniProt Q01959)
Cannabinoid receptor 1 = Cannabinoid receptor 1 (Homo sapiens, UniProt P21554); format: functional, cell-based
[7] = target: 5-hydroxytryptamine receptor 2A (Homo sapiens, UniProt P28223); format: functional, cell-based
Further: assay procedure not described here.

Chain of Muscarinic acetylcholine receptor M3 (P20309 whole entry): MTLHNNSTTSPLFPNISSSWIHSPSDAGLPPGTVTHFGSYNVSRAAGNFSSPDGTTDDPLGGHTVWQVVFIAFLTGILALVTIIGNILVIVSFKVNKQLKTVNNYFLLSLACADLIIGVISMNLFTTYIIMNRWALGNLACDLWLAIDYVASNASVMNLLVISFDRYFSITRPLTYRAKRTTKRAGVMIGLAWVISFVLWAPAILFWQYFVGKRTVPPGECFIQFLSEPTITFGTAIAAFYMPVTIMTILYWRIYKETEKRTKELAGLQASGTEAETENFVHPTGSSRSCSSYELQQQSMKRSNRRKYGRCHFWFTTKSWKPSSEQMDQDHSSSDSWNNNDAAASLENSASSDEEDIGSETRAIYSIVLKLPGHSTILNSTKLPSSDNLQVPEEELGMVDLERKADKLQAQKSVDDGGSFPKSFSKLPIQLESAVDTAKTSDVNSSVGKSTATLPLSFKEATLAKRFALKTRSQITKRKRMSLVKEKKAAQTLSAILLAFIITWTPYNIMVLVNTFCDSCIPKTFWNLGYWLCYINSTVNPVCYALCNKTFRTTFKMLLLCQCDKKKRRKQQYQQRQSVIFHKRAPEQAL
Chain of Sodium-dependent dopamine transporter (Q01959 whole entry): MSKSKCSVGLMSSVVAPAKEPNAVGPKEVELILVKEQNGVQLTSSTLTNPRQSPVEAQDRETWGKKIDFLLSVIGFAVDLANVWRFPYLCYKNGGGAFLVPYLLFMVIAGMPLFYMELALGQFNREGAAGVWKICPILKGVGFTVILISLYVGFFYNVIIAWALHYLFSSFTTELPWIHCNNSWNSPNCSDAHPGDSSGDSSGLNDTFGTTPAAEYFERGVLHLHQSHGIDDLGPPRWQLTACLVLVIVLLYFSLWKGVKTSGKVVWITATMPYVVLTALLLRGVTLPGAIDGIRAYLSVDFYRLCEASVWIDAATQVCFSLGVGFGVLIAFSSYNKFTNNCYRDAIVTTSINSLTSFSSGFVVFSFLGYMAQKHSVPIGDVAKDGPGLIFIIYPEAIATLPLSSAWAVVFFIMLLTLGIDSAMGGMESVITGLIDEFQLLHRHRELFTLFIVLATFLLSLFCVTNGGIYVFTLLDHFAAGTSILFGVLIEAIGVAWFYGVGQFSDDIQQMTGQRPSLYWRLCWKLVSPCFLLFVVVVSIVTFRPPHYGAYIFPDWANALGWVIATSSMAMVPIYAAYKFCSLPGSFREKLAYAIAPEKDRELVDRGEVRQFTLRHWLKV
Chain of 5-hydroxytryptamine receptor 2A (P28223 whole entry): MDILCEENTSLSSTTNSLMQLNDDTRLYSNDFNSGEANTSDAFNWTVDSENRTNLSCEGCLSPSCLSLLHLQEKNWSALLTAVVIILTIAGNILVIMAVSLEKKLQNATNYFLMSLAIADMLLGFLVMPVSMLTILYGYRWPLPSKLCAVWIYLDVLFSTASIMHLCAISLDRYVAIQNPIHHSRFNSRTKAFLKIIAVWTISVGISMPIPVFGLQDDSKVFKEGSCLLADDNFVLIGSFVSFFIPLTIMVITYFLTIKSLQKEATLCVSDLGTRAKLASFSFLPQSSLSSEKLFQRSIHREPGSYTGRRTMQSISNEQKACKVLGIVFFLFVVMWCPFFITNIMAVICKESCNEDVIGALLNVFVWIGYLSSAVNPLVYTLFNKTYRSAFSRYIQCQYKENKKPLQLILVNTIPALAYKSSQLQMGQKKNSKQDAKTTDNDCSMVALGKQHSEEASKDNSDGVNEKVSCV
Chain of Cannabinoid receptor 1 (P21554 whole entry): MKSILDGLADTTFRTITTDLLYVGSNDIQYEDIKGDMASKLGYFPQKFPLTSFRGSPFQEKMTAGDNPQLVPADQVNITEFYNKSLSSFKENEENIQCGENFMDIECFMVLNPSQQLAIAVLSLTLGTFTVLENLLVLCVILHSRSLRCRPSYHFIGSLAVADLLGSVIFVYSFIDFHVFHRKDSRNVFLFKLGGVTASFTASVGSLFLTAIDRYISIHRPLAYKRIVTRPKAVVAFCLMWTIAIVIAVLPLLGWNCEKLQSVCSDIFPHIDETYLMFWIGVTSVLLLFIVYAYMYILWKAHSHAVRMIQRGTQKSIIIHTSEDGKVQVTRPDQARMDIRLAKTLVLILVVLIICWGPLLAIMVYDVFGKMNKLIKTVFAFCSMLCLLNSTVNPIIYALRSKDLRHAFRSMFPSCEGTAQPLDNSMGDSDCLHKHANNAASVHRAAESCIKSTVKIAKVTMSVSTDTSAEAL

Molecule	AC50 [1] [µM]	AC50 [2] [µM]	AC50 (Thromboxane A2 receptor) [µM]	AC50 (B2 bradykinin receptor) [µM]	AC50 [3] [µM]	AC50 [4] [µM]	AC50 [5] [µM]	AC50 [6]	AC50 (Cannabinoid receptor 1) [µM]	AC50 [7] [µM]
O=C1CN=C(c2ccccc2)c2cc(Cl)ccc2N1 [NORDAZEPAM]	> 30	> 30	> 30	> 30	> 10	> 10	> 30	> 10 µM	> 30	–
CC(=O)O[C@H]1C[C@@H]2CC[C@@H]3[C@H](CC[C@@]4(C)[C@H]3C[C@H]([N+]3(C)CCCCC3)[C@@H]4OC(C)=O)[C@@]2(C)C[C@@H]1[N+]1(C)CCCCC1 [PANCURONIUM]	> 10	> 10	> 10	> 10	> 30	> 10	> 10	> 10 µM	–	> 10
CC1(C)C(C=C(Cl)Cl)C1C(=O)OCc1cccc(Oc2ccccc2)c1 (stereo not given) [PERMETHRIN]	> 10	> 10	> 10	> 10	> 30	9.7	> 10	> 10 µM	–	> 10
NC(=O)CCC/N=C(\c1ccc(Cl)cc1)c1cc(F)ccc1O [PROGABIDE]	> 10	> 10	> 10	> 10	> 30	> 10	> 10	> 10 µM	–	> 10
Cc1cc2nc3c(=O)[nH]c(=O)nc-3n(C[C@H](O)[C@H](O)[C@H](O)COP(=O)(O)O)c2cc1C [RIBOFLAVIN 5'-PHOSPHATE]	> 30	> 30	> 30	> 30	> 30	–	0.9	> 30 µM	–	–
CC(NCCc1ccc(O)cc1)C(O)c1ccc(O)cc1 (stereo not given) [RITODRINE]	> 30	> 30	> 30	> 30	> 30	> 30	> 30	19.5 µM and 12.3 µM	–	> 30
COc1cc2nccc(Oc3ccc(NC(=O)Nc4cc(C)on4)c(Cl)c3)c2cc1OC [TIVOZANIB]	> 3	–	> 3	–	–	–	> 3	2.6 µM	–	24
N#C[C@@H]1CCCN1C(=O)CNC12CC3CC(CC(O)(C3)C1)C2 [VILDAGLIPTIN]	> 30	> 30	> 30	> 30	> 30	> 30	> 30	> 30 µM	–	> 30
COLISTIN	–	–	–	–	> 30	> 30	–	–	> 30	> 30
